Values quoted from earlier work as cited in patent US8759333B2, “Di-azetidinyl diamide as monoacylglycerol lipase inhibitors” (Janssen Pharmaceutica, NV, priority 2010, dated 2014).

Legend:
[1] = test system: tail flick; details: intravenous delivery (Mechoulam et al.); cited from earlier work
[2] = test system: hot plate; details: cited from earlier work

## CCCCC/C=C\C/C=C\C/C=C\C/C=C\CCCC(=O)OC(CO)CO [2-AG, 2-arachidinoylglycerol]
[1]
  analgesia in tail flick assay: produces analgesia
[2]; 2-AG given alone (Ben-Shabat et al.)
  analgesia in hot plate assay, given alone: not analgesic
[2]; intravenous delivery (Lichtman et al.)
  analgesia in hot plate assay: produces analgesia
